# Results from ChEMBL document CHEMBL5126627, “Structure-Kinetic Relationship Studies for the Development of Long Residence Time LpxC Inhibitors” (J Med Chem, 2022).
# Active and inactive are the calls of the source. No cut-off for these calls is given here.
# Experiments:
# [1] = tested on: Pseudomonas aeruginosa; test: Antibacterial activity against Pseudomonas aeruginosa PAO1 assessed as inhibition of bacterial growth incubated for 24 hrs by microdilution method; assay type: functional
# [2] = tested on: Pseudomonas aeruginosa; test: Antibacterial activity against Pseudomonas aeruginosa paEP assessed as inhibition of bacterial growth incubated for 24 hrs by microdilution method; assay type: functional
# [3] = tested on: Pseudomonas aeruginosa; test: Binding affinity to Pseudomonas aeruginosa LpxC assessed as binding constant (kon) incubated for 18 hrs by fluorescence based assay
# [4] = tested on: Pseudomonas aeruginosa; test: Binding affinity to Pseudomonas aeruginosa LpxC assessed as binding constant (Koff) incubated for 18 hrs by fluorescence based assay
# [5] = Binding affinity to Pseudomonas aeruginosa LpxC assessed as inhibition constant incubated for 18 hrs by fluorescence based assay
# [6] = tested on: Escherichia coli; test: Antibacterial activity against Escherichia coli ATCC 25922; assay type: functional
# [7] = tested on: Pseudomonas aeruginosa; test: Antibacterial activity against Pseudomonas aeruginosa ATCC 27853; assay type: functional
# [8] = tested on: Pseudomonas aeruginosa; test: Binding affinity to Pseudomonas aeruginosa LpxC assessed as residence time incubated for 18 hrs by fluorescence based assay
# [9] = tested on: Pseudomonas aeruginosa; test: Binding affinity to Pseudomonas aeruginosa LpxC assessed as residence time incubated for 18 hrs by spin column assay
# [10] = tested on: Pseudomonas aeruginosa; test: Antibacterial activity against Pseudomonas aeruginosa PAO1 assessed as post antibiotic effect by measuring time required for increase in 1 log10 CFU/ml of bacteria at 4X MIC incubated for 1 hr followed by compound washout; assay type: functional
# [11] = tested on: Pseudomonas aeruginosa; test: Antibacterial activity against Pseudomonas aeruginosa PAO1 assessed as post antibiotic effect by measuring time required for increase in 1 log10 CFU/ml of bacteria at 8X MIC incubated for 1 hr followed by compound washout; assay type: functional
# [12] = tested on: Pseudomonas aeruginosa; test: Antibacterial activity against Pseudomonas aeruginosa PAO1 assessed as post antibiotic effect by measuring time required for increase in 1 log10 CFU/ml of bacteria at 16X MIC incubated for 1 hr followed by compound washout; assay type: functional
# [13] = tested on: Pseudomonas aeruginosa; test: Bactericidal activity against Pseudomonas aeruginosa PAO1 assessed as reduction in 3log 10 CFU/ml at 4 to 16 times MIC incubated for 16 hrs by time-kill assay; assay type: functional, organism-based
# [14] = tested on: Escherichia coli; test: Antibacterial activity against Escherichia coli MB2884; assay type: functional
SMILES,MIC [1] [µM],MIC [2] [µM],K [3] [M⁻¹ s⁻¹],K [4] [s⁻¹],Ki [5] [pM],MIC [6] [µg/mL],MIC [7] [µg/mL],TIME [8] [h],TIME [9] [h],Time [10] [h],Time [11] [h],Time [12] [h],Activity [13],MIC [14] [µg/mL]
CC(CCn1ccc(-c2ccc(-c3cn(CCO)nn3)cc2)cc1=O)(C(=O)NO)S(C)(=O)=O (racemic),> 50,> 12.5,5.96e+07,0.00018,3.7,–,–,–,–,–,–,–,–,–
O=C(NO)[C@H](Cc1ccc2ccccc2c1)NS(=O)(=O)c1ccc2ccccc2c1,–,–,–,–,–,1,> 0.25,–,–,–,–,–,–,–
C=CCn1cc(-c2ccc(-c3ccn(CCC(C)(C(=O)NO)S(C)(=O)=O)c(=O)c3)cc2)nn1 (racemic),12.5,0.78,5.2e+07,0.00022,6.1,–,–,1.38,146,–,–,–,–,–
C[C@@H](O)[C@H](NC(=O)c1ccc(C#Cc2ccc(CN3CCOCC3)cc2)cc1)C(=O)NO,–,–,–,–,–,0.2,–,–,–,–,–,–,–,–
C[C@@H](O)C(NC(=O)c1ccc(-c2cn(Cc3ccccc3)nn2)cc1)C(=O)NO (mixture of isomers),> 50,> 12.5,–,–,–,–,–,–,–,–,–,–,–,–
CC(CCn1ccc(-c2ccc(-c3cn(CC45CC(C4)C5)nn3)cc2)cc1=O)(C(=O)NO)S(C)(=O)=O (racemic),12.5,0.78,8.52e+07,0.00015,2.1,–,–,–,–,4,–,–,–,–
CC(CCn1ccc(-c2ccc(-c3cn(Cc4ccc([N+](=O)[O-])cc4)nn3)cc2)cc1=O)(C(=O)NO)S(C)(=O)=O (racemic),6.25,0.1,3.07e+07,0.00021,7,–,–,1.31,–,–,–,–,–,–
CC1(Cn2cc(-c3ccc(-c4ccn(CCC(C)(C(=O)NO)S(C)(=O)=O)c(=O)c4)cc3)nn2)COC1 (racemic),25,1.56,–,–,–,–,–,–,–,–,–,–,–,–
COc1ccc(-c2ccc(CNC3(C(=O)NO)CCS(=O)(=O)CC3)cc2)c(F)c1,0.4,0.03,1.66e+07,0.00053,37.9,–,–,0.533,79,1,1.3,1.7,Active,–
COc1ccc(-c2ccn(CCC(C)(C(=O)NO)S(C)(=O)=O)c(=O)c2)cc1 (racemic),3.12,0.8,–,–,–,–,–,–,–,–,–,–,–,–
CC(CCn1ccc(-c2ccc(-c3cn(CC4CCCCC4)nn3)cc2)cc1=O)(C(=O)NO)S(C)(=O)=O (racemic),50,3.12,3.1e+07,0.00017,5.5,–,–,1.67,–,–,–,–,–,–
CC(CCn1ccc(-c2ccc(-c3cn(CC4CC4)nn3)cc2)cc1=O)(C(=O)NO)S(C)(=O)=O (racemic),3.12,0.4,2.64e+07,0.00025,10.2,–,–,1.11,191,1.6,2.2,3.1,Active,–
CC(CCn1ccc(-c2ccc(-c3cn(Cc4ccc(F)cc4)nn3)cc2)cc1=O)(C(=O)NO)S(C)(=O)=O (racemic),1.56,0.05,3.38e+07,0.00025,8,–,–,1.14,106,1.7,2.5,3.5,Active,–
CC(CCn1ccc(-c2ccc(C(=O)NCc3ccccc3)cc2)cc1=O)(C(=O)NO)S(C)(=O)=O (racemic),25,3.12,2.38e+07,0.0021,274,–,–,0.133,–,–,–,–,–,–
COc1ccc(-c2ccn(CC[C@](C)(C(=O)NO)S(C)(=O)=O)c(=O)c2)c(F)c1,0.625,–,–,–,–,–,–,–,–,–,–,–,–,–
CC(CCn1ccc(-c2ccc(-c3cn(Cc4ccncc4)nn3)cc2)cc1=O)(C(=O)NO)S(C)(=O)=O (racemic),50,6.25,–,–,–,–,–,–,–,–,–,–,–,–
CC(CCn1ccc(-c2ccc(-c3cn(Cc4cccnc4)nn3)cc2)cc1=O)(C(=O)NO)S(C)(=O)=O (racemic),–,–,4.28e+07,0.00014,3.2,–,–,2.02,–,–,–,–,–,–
CC(CCn1ccc(-c2ccc(-n3nccn3)cc2)cc1=O)(C(=O)NO)S(C)(=O)=O (racemic),1.56,0.4,–,–,–,–,–,–,–,1.4,2.2,3.4,Active,–
CC(C)(N)[C@H](NC(=O)c1ccc(C#CC#C[C@@H]2C[C@H]2CO)cc1)C(=O)NO [ACHN-975],–,–,–,–,–,0.125,0.25,–,–,–,–,–,–,–
COc1ccc(-c2ccc(CNC3(C(=O)NO)CCS(=O)(=O)CC3)cc2F)cc1,0.8,0.1,3.45e+07,0.00049,14.4,–,–,0.572,–,–,–,–,–,–
CC(CCn1ccc(-c2ccccc2)cc1=O)(C(=O)NO)S(C)(=O)=O (racemic),3.12,0.2,–,–,–,–,–,–,–,0.7,1.1,1.3,Active,–
CC(CCn1ccc(-c2ccc(-c3cn(Cc4ccccn4)nn3)cc2)cc1=O)(C(=O)NO)S(C)(=O)=O (racemic),6.25,0.2,3.72e+07,–,5.5,–,–,–,–,–,–,–,–,–
CCCc1cc(C2=N[C@@H](C(=O)NO)CO2)cc(OC)c1OC,–,–,–,–,–,–,–,–,–,–,–,–,–,1
CC(CCn1ccc(-c2ccc(CN3CCOCC3)cc2)cc1=O)(C(=O)NO)S(C)(=O)=O (racemic),50,–,3.64e+07,0.0035,96.8,–,–,0.0783,–,–,–,–,–,–
CC(CCn1ccc(-c2ccc(-c3cnnn3Cc3ccccc3)cc2)cc1=O)(C(=O)NO)S(C)(=O)=O (racemic),50,12.5,2.78e+07,0.00187,67.7,–,–,0.15,–,–,–,–,–,–
CC(CCn1ccc(-c2ccc(NC(=O)Cc3ccccc3)cc2)cc1=O)(C(=O)NO)S(C)(=O)=O (racemic),50,3.12,4.48e+07,0.0043,95.4,–,–,0.0667,–,–,–,–,–,–
CC(CCn1ccc(-c2ccc(-c3cn(Cc4ccncn4)nn3)cc2)cc1=O)(C(=O)NO)S(C)(=O)=O (racemic),50,3.12,4.43e+07,0.00017,4.2,–,–,1.71,–,–,–,–,–,–
CC(CCn1ccc(-c2ccc(-c3cn(Cc4ccccc4)nn3)cc2)cc1=O)(C(=O)NO)S(C)(=O)=O (racemic),12.5,0.78,4.38e+07,0.00032,10.6,–,–,0.955,–,–,–,–,–,–
